Test results: US20170007562A1, “Use of Guanidinoacetic Acid and/or Creatine for Increasing the Hatch Rate” (EVONIK DEGUSSA GMBH, priority 2014, published 2017)

Key:
eggs = details: prior art, Halle et al, Landbauforschung Völkenrode (2006); cited from earlier work
[1] = tested on: parent quails / quail eggs; test: Effect of guanidinoacetic acid in parent feed on total fertility, hatching rate and embryo mortality of quail eggs; assay type: in vivo; details: for Total fertility: eggs of quails aged 29 weeks; for Hatching rate: hatched quails to incubated eggs
Experimental: 240 parent quails aged 25 weeks were randomly assigned to 5 different rations. Each ration had in each case 8 cages assigned to it, each of which contained a total of 6 birds (4 females, 2 males). Each of the cages was exposed to 17 hours light (natural and artificial), followed by 7 hours dark.
The basic feed employed was a mixture which consisted essentially of maize meal and extracted soybean meal (see table 1). Guanidinoacetic acid (GAA) was added to the basic feed in 4 different amounts (0.06; 0.12; 0.18; 0.24% by weight) giving in total 5 different feed mixtures—with the basic feed without guanidinoacetic acid as reference. The inert constituents of the basic feed were in each case partially substituted by the added guanidinoacetic acid. Guanidinoacetic acid was employed in the form of the commercial product CreAMINO® (96% GAA, Evonik Industries, Germany). During the experiment, the feed was administered ad lib in the form of a meal. Furthermore, the birds were also supplied with sufficient water.
When the quails had reached an age of 29 weeks, the eggs laid were collected on seven successive days and stored for six days in a room at a temperature of 20° C. Thereafter, in each case 196 eggs per ration were incubated in an automatic hatcher. After incubation for 15 days in the hatcher, the eggs were transferred into a hatching room with a temperature of 37° C. and relative atmospheric humidity of 65%. After two days in the hatching room, the hatching rate was determined as the ratio of hatched quails to the number of incubated eggs. Equally, the total fertility was determined as the ratio of fertilized eggs to the total number of incubated eggs. Furthermore, the hatching rate of fertilized eggs was determined as the ratio of hatched quails to the number of fertilized eggs. Furthermore, the embryo mortality, too, was determined. Finally, the guanidinoacetic acid, creatine and creatinine contents in the obtained eggs were determined.

hatched quail chicks = test: Effect of GAA feeding of the parent animals on the properties of the hatched chicks; assay type: in vivo, quails; details: for Feed conversion / Weight gain / total feed intake, days 1–35: GAA-free ration, days 1 to 35; for Weight on day 1: chicks on GAA-free ration
Excerpt: Finally, the effect of GAA feeding of the parent animals on the properties of the hatched chicks was also studied. To this end, in each case 80 chicks which had been obtained subsequently to feeding the parent animals with the respective ratios were subjected to a two-step feeding programme. Here, the chicks were subjected to a GAA-free ration. Here, all chicks were given the same feed. The feeding stuff of the chicks for the first three weeks and for weeks four to five can be seen from Table 1. The data determined were chick weight on the day of hatching, chick performance (feed intake, weight increase and feed conversion) and creatine content in the muscle tissue of the freshly hatched chicks.

[2] = tested on: parent broilers (Cobb 500); test: Effect of guanidinoacetic acid on egg production, fertility and hatching rate of hatchery eggs of parent broilers; assay type: in vivo; details: week 50 to 60
Excerpt: 120 parent broilers (Cobb 500) were randomly assigned to 5 different 10-week feeding measures from week 50 to week 60 of their lives. In each case 6 cages, each of which contained a total of 4 parent hens were subjected to each feeding measure. The basic feed employed was a mixture consisting essentially of maize meal and soybean meal (Table 5). […] In this context, in each case the inert constituents of the basic feed were substituted to some extent by the added guanidinoacetic acid. Guanidinoacetic acid was employed in the form of the commercial product CreAMINO® (96% GAA, Evonik Industries, Germany). The parent animals were given the feed meal as per instructions of the Cobb Breeder Management Guide. In week 60 of their lives, the hens were twice artificially inseminated, the second insemination taking place 4 days after the first one. The semen used for the insemination was obtained from cockerels which had not been fed GAA. The semen was obtained by using abdominal massage. The semen obtained was collected and the sperm cell concentration was determined in order to ensure that all hens were inseminated with the same number and the same volume of sperm cells. After carrying out the insemination, the laid eggs were collected on 10 successive days. The eggs obtained were finally incubated under identical conditions, and the egg production rate, fertility and hatching rate of the fertilized eggs were subsequently determined.

[3] = 0.06% by weight GAA in parent feed
[4] = 0.06% by weight GAA in parent feed, quails
[5] = 0.12% by weight GAA in parent feed
[6] = 0.12% by weight GAA in parent feed, quails
[7] = 0.18% by weight GAA in parent feed
[8] = 0.18% by weight GAA in parent feed, quails
[9] = 0.24% by weight GAA in parent feed
[10] = 0.24% by weight GAA in parent feed, quails
[11] = square regression analysis, quails
[12] = chicks of parents fed 0.06% by weight GAA
[13] = chicks of parents fed 0.12% by weight GAA
[14] = chicks of parents fed 0.18% by weight GAA
[15] = chicks of parents fed 0.24% by weight GAA
[16] = 0.04% by weight guanidinoacetic acid in feed
[17] = 0.08% by weight guanidinoacetic acid in feed
[18] = 0.12% by weight guanidinoacetic acid in feed
[19] = 0.16% by weight guanidinoacetic acid in feed

CN(CC(=O)O)C(=N)N [creatine]
effect on the hatching rate (eggs): no effect

N=C(N)NCC(=O)O [GAA, Guanidinoacetic acid]
Total fertility [1, 3]: 95.27 ± 1.81% | Hatching rate [1, 3]: 76.52 ± 3.78% | Hatching rate of the fertilized eggs [1, 4]: 80.19 ± 3.07% | Mortality (embryo mortality) [1, 4]: 18.75 ± 2.76% | Total fertility [1, 5]: 97.05 ± 1.51% | Hatching rate [1, 5]: 90.69 ± 2.10% | Hatching rate of the fertilized eggs [1, 6]: 93.49 ± 2.04% | Mortality (embryo mortality) [1, 6]: 6.40 ± 1.96% | Total fertility [1, 7]: 98.32 ± 0.82% | Hatching rate [1, 7]: 87.39 ± 3.20% | Hatching rate of the fertilized eggs [1, 8]: 88.94 ± 3.33% | Mortality (embryo mortality) [1, 8]: 10.92 ± 3.32% | Total fertility [1, 9]: 94.02 ± 1.29% | Hatching rate [1, 9]: 81.38 ± 2.50% | Hatching rate of the fertilized eggs [1, 10]: 86.51 ± 2.03% | Mortality (embryo mortality) [1, 10]: 12.64 ± 1.89% | dosage from which the observed effects were significantly increased ([1]; quails): above 0.1 % by weight | optimum range of feeding the parent animals ([1]; quails): 0.12-0.18 % by weight | optimum value for GAA supplementation in terms of the hatching rate [1, 11]: 0.15 % by weight | optimum value for GAA supplementation in terms of the hatching rate of fertilized eggs [1, 11]: 0.16 % by weight | optimum value for GAA supplementation in terms of the mortality rate [1, 11]: 0.16 % by weight | optimum value for GAA supplementation in terms of the total reproduction [1, 11]: 0.14 % by weight | Feed conversion (hatched quail chicks; [12]): 3.248 ± 0.063 g/g | Weight gain (hatched quail chicks; [12]): 230.74 ± 7.6 g | total feed intake, days 1–35 (hatched quail chicks; [12]): 748 ± 11.1 g | Weight on day 1 (hatched quail chicks; [12]): 9.60 ± 0.16 g | Feed conversion (hatched quail chicks; [13]): 3.414 ± 0.048 g/g | Weight gain (hatched quail chicks; [13]): 224.98 ± 2.9 g | total feed intake, days 1–35 (hatched quail chicks; [13]): 768 ± 11.1 g | Weight on day 1 (hatched quail chicks; [13]): 9.74 ± 0.31 g | Feed conversion (hatched quail chicks; [14]): 3.305 ± 0.033 g/g | Weight gain (hatched quail chicks; [14]): 217.22 ± 0.6 g | total feed intake, days 1–35 (hatched quail chicks; [14]): 718 ± 8.95 g | Weight on day 1 (hatched quail chicks; [14]): 9.65 ± 0.16 g | Feed conversion (hatched quail chicks; [15]): 3.455 ± 0.090 g/g | Weight gain (hatched quail chicks; [15]): 222.86 ± 1.9 g | total feed intake, days 1–35 (hatched quail chicks; [15]): 770 ± 26.1 g | Weight on day 1 (hatched quail chicks; [15]): 9.41 ± 0.17 g | Creatine in the muscle (hatched quail chicks; freshly hatched chicks of parents fed 0.06% by weight GAA): 0.541 ± 0.026 mg/g | Creatine in the muscle (hatched quail chicks; freshly hatched chicks of parents fed 0.12% by weight GAA): 0.489 ± 0.058 mg/g | Creatine in the muscle (hatched quail chicks; freshly hatched chicks of parents fed 0.18% by weight GAA): 0.481 ± 0.040 mg/g | Creatine in the muscle (hatched quail chicks; freshly hatched chicks of parents fed 0.24% by weight GAA): 0.433 ± 0.033 mg/g | Egg production [2, 16]: 50.42% | Fertility [2, 16]: 85.15% | Hatching rate (of fertilized eggs) [2, 16]: 65.59% | Egg production [2, 17]: 53.18% | Fertility [2, 17]: 96.51% | Hatching rate (of fertilized eggs) [2, 17]: 83.76% | Egg production [2, 18]: 53.44% | Fertility [2, 18]: 96.43% | Hatching rate (of fertilized eggs) [2, 18]: 83.95% | Egg production [2, 19]: 50.50% | Fertility [2, 19]: 81.76% | Hatching rate (of fertilized eggs) [2, 19]: 65.04%
